Data as given in US20230278996A1, “YKL-40 INHIBITORS AND THEIR THERAPEUTIC APPLICATIONS” (Molecure S.A., priority 2022, published 2023).
Where a name gives a salt, the structure may show the parent alone.

target: YKL-40: heparan sulfate interaction (Homo sapiens (Human), UniProt P36222); assay: YKL-40:HS assay, heparan sulfate interference AlphaScreen; format: binding; details: competition with biotinylated heparan sulphate (60 nM)
Sequence (P36222 22-383): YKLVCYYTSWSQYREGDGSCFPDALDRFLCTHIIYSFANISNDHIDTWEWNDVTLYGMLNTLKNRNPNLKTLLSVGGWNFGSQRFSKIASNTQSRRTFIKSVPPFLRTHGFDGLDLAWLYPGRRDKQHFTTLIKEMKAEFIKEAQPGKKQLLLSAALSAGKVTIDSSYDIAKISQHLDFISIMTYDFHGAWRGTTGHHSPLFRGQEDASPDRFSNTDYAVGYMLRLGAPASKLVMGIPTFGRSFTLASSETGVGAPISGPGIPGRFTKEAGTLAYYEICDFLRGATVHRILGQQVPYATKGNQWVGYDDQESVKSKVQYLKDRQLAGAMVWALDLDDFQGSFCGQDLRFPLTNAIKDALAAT
Description: In the similar way to establishing YKL-40 chitin binding site competitive AlphaScreen assay (section 3), the YKL-40 AlphaScreen assay using biotinylated 9 kDa heparan sulfate fraction III was established, including the same buffer conditions (50 mM Tris HCl pH 7.4, 150 mM NaCl, 10 mM MgCl2, 0.05% Tween 20, 1 mg/mL BSA 1% DMSO). […] Next, biotinylated heparan sulfate fraction III custom-ordered from Iduron was cross-titrated with histagged YKL-40 using AlphaScreen assay described above.
Positive and negative control wells received just 8 uL of MST buffer containing 2% DMSO without inhibitor in the 2nd step (ii). In addition, negative control received just 8 uL of MST buffer containing 0% DMSO without YKL-40-histag in the 3nd step (iii). Finally, the plate luminescence was excited at 680 nm and the emission read at 520-620 nm using the AlphaScreen module in the The Spark™ 10 M multimode microplate reader (Tecan Trading AG, Männedorf, Switzerland). Inhibition percentage and IC50 values were determined using GraphPad Prism 7.0 software (GraphPad Software, San Diego, Calif., USA).

`CN1C[C@H](Cc2ccc(Cl)cc2)N(C2CCN(c3cc(Cl)ccn3)CC2)C[C@@H]1CN1CCOCC1` [compound 51, 4-(((2S,5S)-5-(4-chlorobenzyl)-4-(1-(4-chloropyridin-2-yl)piperidin-4-yl)-1-methyl-piperazin-2-yl)methyl)morpholine hydrochloride] and `CN1C[C@H](Cc2ccc(Cl)cc2)N(C2CCN(c3cc(Cl)ccn3)CC2)C[C@@H]1Cn1ccnc1` [compound 82, (2R,5S)-2-((1H-imidazol-1-yl)methyl)-5-(4-chlorobenzyl)-4-(1-(4-chloropyridin-2-yl)piperidin-4-yl)-1-methylpiperazine hydrochloride] cannot be ordered by IC50: < 0.1 µM for the first, < 0.1 µM for the second.

Work on `CN1C[C@H](Cc2ccc(Cl)cc2)N(C2CCN(c3ccccn3)CC2)C[C@@H]1Cc1ccc(Cl)cc1` [compound 63, (2S,5S)-2,5-bis(4-chlorobenzyl)-1-methyl-4-(1-(pyridin-2-yl)piperidin-4-yl)piperazine 2,2,2-trifluoroacetate] yielded an IC50 of 0.1 to 1 µM.

target: YKL-40 (Homo sapiens (Human), UniProt P36222); assay: YKL-40:4 assay, competitive chitin binding site AlphaScreen; details: competition with biotinylated compound 4 (20 nM), YKL-40-histag 2.5 nM
Sequence (P36222 22-383): as above

`CN1C[C@H](Cc2ccc(Cl)cc2)N(C2CCN(c3cc(Cl)ccn3)CC2)C[C@@H]1CN1CCOCC1` [compound 51, 4-(((2S,5S)-5-(4-chlorobenzyl)-4-(1-(4-chloropyridin-2-yl)piperidin-4-yl)-1-methyl-piperazin-2-yl)methyl)morpholine hydrochloride] and `CN1C[C@H](Cc2ccc(Cl)cc2)N(C2CCN(c3cc(Cl)ccn3)CC2)C[C@@H]1Cn1ccnc1` [compound 82, (2R,5S)-2-((1H-imidazol-1-yl)methyl)-5-(4-chlorobenzyl)-4-(1-(4-chloropyridin-2-yl)piperidin-4-yl)-1-methylpiperazine hydrochloride] cannot be ordered by IC50: < 0.1 µM for the first, < 0.1 µM for the second.

Compared with `CN1C[C@H](Cc2ccc(Cl)cc2)N(C2CCN(c3ccccn3)CC2)C[C@@H]1Cc1ccc(Cl)cc1` [compound 63, (2S,5S)-2,5-bis(4-chlorobenzyl)-1-methyl-4-(1-(pyridin-2-yl)piperidin-4-yl)piperazine 2,2,2-trifluoroacetate], `Clc1ccc(C[C@H]2CN3CCOC[C@H]3CN2C2CCN(c3ccccn3)CC2)cc1` [compound 155, (7S,9aR)-7-(4-chlorobenzyl)-8-(1-(pyridin-2-yl)piperidin-4-yl)octahydropyrazino[2,1-c][1,4]oxazine hydrochloride] is lower in IC50: 1 to 10 µM for the first, < 0.1 µM for the second.

`C[C@H]1CN(C2CCN(c3cncc(C(F)(F)F)n3)CC2)[C@@H](Cc2ccc(Cl)cc2)CO1` [compound 153, (2S,5S)-5-(4-chlorobenzyl)-2-methyl-4-(1-(6-(trifluoromethyl)pyrazin-2-yl)piperidin-4-yl)morpholine hydrochloride] and `C[C@H]1CN(C2CCN(c3cnc(C(F)(F)F)cn3)CC2)[C@@H](Cc2ccc(Cl)cc2)CO1` [compound 158, (2S,5S)-5-(4-chlorobenzyl)-2-methyl-4-(1-(5-(trifluoromethyl)pyrazin-2-yl)piperidin-4-yl)morpholine hydrochloride] cannot be ordered by IC50: > 100 µM for the first, > 100 µM for the second.

First: CNC(=O)[C@H]1CN(C2CCN(c3ccccn3)CC2)[C@@H](Cc2ccc(Cl)cc2)CO1 [compound 154, (2R,5S)-5-(4-chlorobenzyl)-N-methyl-4-(1-(pyridin-2-yl)piperidin-4-yl)morpholine-2-carboxamide hydrochloride]
Second: C[C@H]1CN(C2CCN(c3cc(O)ccn3)CC2)[C@@H](Cc2ccc(Cl)cc2)CO1 [compound 161, 2-(4-((2S,5S)-5-(4-chlorobenzyl)-2-methylmorpholino)piperidin-1-yl)pyridin-4-ol 2,2,2-trifluoroacetate]
The IC50 of the first is lower: 0.1 to 1 µM for the first, 10 to 100 µM for the second.

First: C[C@H]1CN(C2CCN(c3ccnc(Br)c3)CC2)[C@@H](Cc2ccc(Cl)cc2)CO1 [compound 156, (2S,5S)-4-(1-(2-bromopyridin-4-yl)piperidin-4-yl)-5-(4-chlorobenzyl)-2-methylmorpholine hydrochloride]
Second: C[C@H]1CN(C2CCN(c3ncccc3O)CC2)[C@@H](Cc2ccc(Cl)cc2)CO1 [compound 160, 2-(4-((2S,5S)-5-(4-chlorobenzyl)-2-methylmorpholino)piperidin-1-yl)pyridin-3-ol 2,2,2-trifluoroacetate]
The IC50 of the first is lower: 10 to 100 µM for the first, > 100 µM for the second.

Compared with `C[C@H]1CN(C2CCN(c3cccc4nccn34)CC2)[C@@H](Cc2ccc(Cl)cc2)CO1` [compound 157, (2S,5S)-5-(4-chlorobenzyl)-4-(1-(imidazo[1,2-α]pyridin-5-yl)piperidin-4-yl)-2-methylmorpholine hydrochloride], `COc1cccnc1N1CCC(N2C[C@H](C)OC[C@@H]2Cc2ccc(Cl)cc2)CC1` [compound 162, (2S,5S)-5-(4-chlorobenzyl)-4-(1-(3-methoxypyridin-2-yl)piperidin-4-yl)-2-methylmorpholine 2,2,2-trifluoroacetate] is higher in IC50: 10 to 100 µM for the first, > 100 µM for the second.

Compared with `C[C@H]1CN(c2ccc(-c3ccccn3)cc2)[C@@H](Cc2ccc(Cl)cc2)CO1` [compound 159, (2S,5S)-5-(4-chlorobenzyl)-2-methyl-4-(4-(pyridin-2-yl)phenyl)morpholine hydrochloride], `C[C@H]1CN(C2CCN(c3cc(=O)[nH]cn3)CC2)[C@@H](Cc2ccc(Cl)cc2)CO1` [compound 167, 6-(4-((2S,5S)-5-(4-chlorobenzyl)-2-methylmorpholino)piperidin-1-yl)pyrimidin-4(3H)-one 2,2,2-trifluoroacetate] is higher in IC50: 0.1 to 1 µM for the first, > 100 µM for the second. The first is the more potent here.

`CC(C)c1nc(N2CCC(N3C[C@H](C)OC[C@@H]3Cc3ccc(Cl)cc3)CC2)no1` [compound 163, (2S,5S)-5-(4-chlorobenzyl)-4-(1-(5-isopropyl-1,2,4-oxadiazol-3-yl)piperidin-4-yl)-2-methylmorpholine 2,2,2-trifluoroacetate] and `C[C@H]1CN(C2CCN(c3noc(C(F)(F)F)n3)CC2)[C@@H](Cc2ccc(Cl)cc2)CO1` [compound 164, (2S,5S)-5-(4-chlorobenzyl)-2-methyl-4-(1-(5-(trifluoromethyl)-1,2,4-oxadiazol-3-yl)piperidin-4-yl)morpholine 2,2,2-trifluoroacetate] cannot be ordered by IC50: > 100 µM for the first, > 100 µM for the second.

`C[C@H]1CN(C2CCN(c3noc(=O)[nH]3)CC2)[C@@H](Cc2ccc(Cl)cc2)CO1` [compound 165, 3-(4-((2S,5S)-5-(4-chlorobenzyl)-2-methylmorpholino)piperidin-1-yl)-1,2,4-oxadiazol-5(4H)-one 2,2,2-trifluoroacetate] and `Cc1noc(N2CCC(N3C[C@H](C)OC[C@@H]3Cc3ccc(Cl)cc3)CC2)n1` [compound 188, (2S,5S)-5-(4-chlorobenzyl)-2-methyl-4-(1-(3-methyl-1,2,4-oxadiazol-5-yl)piperidin-4-yl)morpholine 2,2,2-trifluoroacetate] cannot be ordered by IC50: > 100 µM for the first, > 100 µM for the second.

`C[C@H]1CN(C2CCN(c3nnn[nH]3)CC2)[C@@H](Cc2ccc(Cl)cc2)CO1` [compound 166, (2S,5S)-4-(1-(1H-tetrazol-5-yl)piperidin-4-yl)-5-(4-chlorobenzyl)-2-methylmorpholine 2,2,2-trifluoroacetate] and `C[C@H]1CN(C2CCN(c3nncs3)CC2)[C@@H](Cc2ccc(Cl)cc2)CO1` [compound 181, (2S,5S)-4-(1-(1,3,4-thiadiazol-2-yl)piperidin-4-yl)-5-(4-chlorobenzyl)-2-methylmorpholine 2,2,2-trifluoroacetate] cannot be ordered by IC50: > 100 µM for the first, > 100 µM for the second.

`C[C@H]1CN(C2CCN(c3ncc(C(F)(F)F)o3)CC2)[C@@H](Cc2ccc(Cl)cc2)CO1` [compound 168, (2S,5S)-5-(4-chlorobenzyl)-2-methyl-4-(1-(5-(trifluoromethyl)oxazol-2-yl)piperidin-4-yl)morpholine 2,2,2-trifluoroacetate] and `C[C@H]1CN(C2CCN(c3ncns3)CC2)[C@@H](Cc2ccc(Cl)cc2)CO1` [compound 179, (2S,5S)-4-(1-(1,2,4-thiadiazol-5-yl)piperidin-4-yl)-5-(4-chlorobenzyl)-2-methylmorpholine 2,2,2-trifluoroacetate] cannot be ordered by IC50: > 100 µM for the first, > 100 µM for the second.

`C[C@H]1CN(C2CCN(c3ncnc(Cl)n3)CC2)[C@@H](Cc2ccc(Cl)cc2)CO1` [compound 169, (2S,5S)-4-(1-(4-chloro-1,3,5-triazin-2-yl)piperidin-4-yl)-5-(4-chlorobenzyl)-2-methylmorpholine 2,2,2-trifluoroacetate] and `C[C@H]1CN(C2CCN(c3ncnc(O)n3)CC2)[C@@H](Cc2ccc(Cl)cc2)CO1` [compound 170, 4-(4-((2S,5S)-5-(4-chlorobenzyl)-2-methylmorpholino)piperidin-1-yl)-1,3,5-triazin-2-ol 2,2,2-trifluoroacetate] cannot be ordered by IC50: > 100 µM for the first, > 100 µM for the second.

`COc1ncnc(N2CCC(N3C[C@H](C)OC[C@@H]3Cc3ccc(Cl)cc3)CC2)n1` [compound 171, (2S,5S)-5-(4-chlorobenzyl)-4-(1-(4-methoxy-1,3,5-triazin-2-yl)piperidin-4-yl)-2-methylmorpholine 2,2,2-trifluoroacetate] and `Cc1ncnc(N2CCC(N3C[C@H](C)OC[C@@H]3Cc3ccc(Cl)cc3)CC2)n1` [compound 172, (2S,5S)-5-(4-chlorobenzyl)-2-methyl-4-(1-(4-methyl-1,3,5-triazin-2-yl)piperidin-4-yl)morpholine 2,2,2-trifluoroacetate] cannot be ordered by IC50: > 100 µM for the first, > 100 µM for the second.

`C[C@H]1CN(C2CCN(c3ncnc(C#N)n3)CC2)[C@@H](Cc2ccc(Cl)cc2)CO1` [compound 173, 4-(4-((2S,5S)-5-(4-chlorobenzyl)-2-methylmorpholino)piperidin-1-yl)-1,3,5-triazine-2-carbonitrile 2,2,2-trifluoroacetate] and `C[C@H]1CN(C2CCN(c3ncnc(N)n3)CC2)[C@@H](Cc2ccc(Cl)cc2)CO1` [compound 174, 4-(4-((2S,5S)-5-(4-chlorobenzyl)-2-methylmorpholino)piperidin-1-yl)-1,3,5-triazin-2-amine 2,2,2-trifluoroacetate] cannot be ordered by IC50: > 100 µM for the first, > 100 µM for the second.

`C[C@H]1CN(C2CCN(c3ncnc(N(C)C)n3)CC2)[C@@H](Cc2ccc(Cl)cc2)CO1` [compound 175, 4-(4-((2S,5S)-5-(4-chlorobenzyl)-2-methylmorpholino)piperidin-1-yl)-N,N-dimethyl-1,3,5-triazin-2-amine 2,2,2-trifluoroacetate] and `Cc1nsc(N2CCC(N3C[C@H](C)OC[C@@H]3Cc3ccc(Cl)cc3)CC2)n1` [compound 180, (2S,5S)-5-(4-chlorobenzyl)-2-methyl-4-(1-(3-methyl-1,2,4-thiadiazol-5-yl)piperidin-4-yl)morpholine 2,2,2-trifluoroacetate] cannot be ordered by IC50: > 100 µM for the first, > 100 µM for the second.

First: Cc1nnc(N2CCC(N3C[C@H](C)OC[C@@H]3Cc3ccc(Cl)cc3)CC2)s1 [compound 182, (2S,5S)-5-(4-chlorobenzyl)-2-methyl-4-(1-(5-methyl-1,3,4-thiadiazol-2-yl)piperidin-4-yl)morpholine 2,2,2-trifluoroacetate]
Second: Cc1csc(N2CCC(N3C[C@H](C)OC[C@@H]3Cc3ccc(Cl)cc3)CC2)n1 [compound 184, (2S,5S)-5-(4-chlorobenzyl)-2-methyl-4-(1-(4-methylthiazol-2-yl)piperidin-4-yl)morpholine 2,2,2-trifluoroacetate]
The IC50 of the first is higher: > 100 µM for the first, 1 to 10 µM for the second.
